Measurements taken from patent US20030134779A1, “Method and composition for treatment and/or prevention of antibiotic-resistant microorganism infections” (priority 2002, published 2003).

How the values were obtained:
E. coli SHY97-3923 = test: Bacterial growth in MHB; type: cell-based, Escherichia coli
Description: (§1) The effect of LF or LFC at concentration sub-MICs alone or in combination with sub-MICs of antibiotics on bacterial growth rate of S. aureus, E. coli and K. pneumoniae was determined by monitoring bacterial cultures in MHB with the O.D.600 nm or by the count of colony forming unit per ml (cfu/ml). A volume of 2.5 ml of overnight cultures in MHB adjusted to 0.5-1 McFarland standard in saline were used to inoculate a final volume of 25 ml of fresh MHB containing the desired concentration of tested compounds. All flasks were then incubated at 37° C. with agitation (200 rpm) for 9 h. Aliquots were removed every hour to determine the culture turbidity using the spectrophotometer Philips PU 8800 (Pye Unican Ltd, Cambridge, UK). The combined antibiotic effect on bacterial growth was also determined using concentrations of LF in the presence of different concentrations of antibiotics. Briefly, a volume of 3 ml of fresh MHB containing desired concentration of drugs was adjusted to an optical density of 0.4 at 540 nm after an overnight culture. The culture was then incubated at 37° C with agitation (200 rpm). After incubation, aliquots were removed to determine the culture turbidity (OD540nm) or cfu/ml. To determine the influence of the level of iron on of the growth inhibition by the test compound, 5 μM of FeCl3 were added to the media.

K. pneumoniae SHY99-723 = test: Bacterial growth in MHB; type: cell-based, Klebsiella pneumoniae
Description: as §1

S. aureus PC-1 [1] = test: Bacterial growth in MHB; type: cell-based, Staphylococcus aureus; conditions: LF or LFC alone, sub-MIC
Description: as §1

S. aureus PC-1 [2] = test: Cell morphology by transmission electron microscopy; type: cell-based, Staphylococcus aureus
Description: Bacterial cells were grown overnight on MHA or MHB containing sub-MICs of penicillin G with or without LF or LFC. Microorganisms were prepared for transmission electron microscopy by fixation with glutaraldehyde followed by ferritin labelling. This method allows good- preservation of capsular material. Briefly, bacterial cells grown in the presence or absence of antibiotics were fixed in cacodylate buffer (0.1 M, pH 7.0) containing 5% (v/v) glutaraldehyde, for 2 h at 20° C. Fixed microorganims were suspended in cacodylate buffer and allowed to react with the polycationic ferritin (Sigma Chemicals, St-Louis, Mo.; final concentration 1.0 mg/ml) for 30 min at 20° C. The reaction was slowed down by 10-fold dilution with buffer, and the microorganisms were centrifuged and washed three times in cacodylate buffer. Bacterial cells were then immobilized in 4% (w/v) agar, washed 5 times in cacodylate buffer and post-fixed with 2% (w/v) osmium tetroxide for 2 h. Washings were repeated as above, and the samples dehydrated in a graded series of acetone washes. Samples were then washed twice in propylene oxide and embedded in Spurr low-viscosity resin. Thin sections were post-stained with uranyl acetate and lead citrate and examined with an electron microscope (Philips 201) at an accelerating voltage of 60 kV.
Bacterial cells of PC-1 (a constitutively high producing β-lactamase strain) were grown overnight in MHB containing 8 μg/ml of penicillin G, 16 μg/ml of LFC alone or in combination for 4-h at 37° C. with agitation at 150 rpm. Bacteria cell morphology was evaluated by transmission electron microscopy after fixation and ferritin labelling method as previously described.

[3] = tested on: β-lactamase activity of S. aureus PC-1; test: β-lactamase activity, nitrocefin assay, bovine LF/LFC; type: cell-based; conditions: LF 1 mg/ml (P<0.05); LFC 32 or 64 μg/ml (P<0.001)
Description: The effects of sub-MICs of LF (1 mg/ml), LFC (32 and 64 μg/ml) alone or in combination with ampicillin (4μg/ml) or penicillin G (8 μg/ml) were evaluated on the β-lactamase activity of S. aureus strains SHY97-4320 and PC-1. The chromogenic cephalosporin nitrocefin (Becton Dickinson, Microbiology, Cockeysville, Md.) was used in a quantitative spectrophotometric assay. Bacterial cells were first exposed during 4 and 22-h to drugs in broth. The number of bacteria (cfu/ml) were determined and cells aliquots were centrifuged at each point in time. The pellets were suspended in 10 mM HEPES buffer (pH 7.4) to an OD415 nm of 1 for PC-1 and 2 for SHY97-4320. Nitrocefin (100 μM) was added to 100 μl of cells in a final volume of 1 ml. Hydrolysis was measured at 486 nm on spectrophotometer. β-lactamase activity was expressed as ΔO.D.486 nm/min and corrected for bacterial OD.

[4] = tested on: S. typhimurium strain DT 104; conditions: isolates with decreased fluoroquinolone sensitivity; cited from earlier work
S. aureus strains = test: Disk diffusion susceptibility test and cefinase test; type: cell-based, Staphylococcus aureus; conditions: β-lactamase producing strains
Description: For quality control, disk diffusion susceptibility tests, as recommended by the National Committee for Clinical Laboratory Standard, were performed on all strains using standard disk of various antibiotics. After 18 h of incubation at 37° C., the diameter of the zone of complete inhibition of bacterial growth around each disk was measured. Isolates were categorized as sensitive or resistant for a given antibiotic using the recommended interpretative guidelines of the manufacturer.

[5] = tested on: Escherichia coli strain harboring TEM-12 beta-lactamase; conditions: cited from earlier work
[6] = tested on: Escherichia coli strain harboring wild TEM-1 beta-lactamase; conditions: cited from earlier work
[7] = tested on: Escherichia coli strain harboring TEM-10 beta-lactamase; conditions: cited from earlier work
S. aureus SHY97-3906 = test: Bacterial growth in MHB; type: cell-based, Staphylococcus aureus; conditions: combination of erythromycin and LF; 18-h of incubation
Description: as §1

For neomycin, the “effect of neomycin on bacterial growth” value (E. coli SHY97-3923; 16 μg/ml LFC (1/16 MIC) added) was “significantly enhanced”, the “effect of neomycin on bacterial growth” value (E. coli SHY97-3923; 1 mg/ml of LF added) was “significantly enhanced” and the “reduction of bacterial growth rate with neomycin” value (K. pneumoniae SHY99-723; 16 μg/ml LFC (1/16 MIC) added) was 2 times. The “reduction of bacterial growth rate with neomycin” value (K. pneumoniae SHY99-723; 0.5 mg/ml of LF added) was 2 times.
In the case of `CC[C@H](C)[C@@H]1NC(=O)[C@H](CO)NC(=O)[C@@H]2CCCN2C(=O)[C@H](C)NC(=O)CNC(=O)[C@H](CC(C)C)NC(=O)[C@H](CCCCN)NC(=O)[C@H](CCCCN)NC(=O)[C@H](CCSC)NC(=O)[C@H](CCCNC(=N)N)NC(=O)[C@H](Cc2c[nH]c3ccccc23)NC(=O)[C@H](CCC(N)=O)NC(=O)[C@H](Cc2c[nH]c3ccccc23)NC(=O)[C@H](CCCNC(=N)N)NC(=O)[C@H](CCCNC(=N)N)NC(=O)[C@@H](NC(=O)[C@H](CCCCN)NC(=O)[C@@H](N)Cc2ccccc2)CSSC[C@@H](C(=O)N[C@H](C(=O)N[C@@H](CCCNC(=N)N)C(=O)N[C@@H](CCCNC(=N)N)C(=O)N[C@@H](C)C(=O)N[C@@H](Cc2ccccc2)C(=O)O)C(C)C)NC(=O)[C@H]([C@@H](C)O)NC1=O` [LFC], the growth (S. aureus PC-1 [1]) is reported as “delayed growth”, the “mesosome structures arising from the septa and cell wall” value (S. aureus PC-1 [2]; LFC 16 μg/ml) is reported as “induced formation of mesosome structures” and the bacterial lysis (S. aureus PC-1 [2]; LFC 16 μg/ml alone, 4-h) is reported as “A large percentage of lysed bacteria”. The “bacterial lysis by LFC” value (S. aureus PC-1 [2]; LFC 16 μg/ml in the presence of penicillin G 8 μg/ml) was “enhanced”, the “shape and size of cells” value (S. aureus PC-1 [2]; exposure to LF or LFC) was “affected the shape and the size” and the β-lactamase activity [3] was “strong”.
For `O=C(O)c1cn(C2CC2)c2cc(N3CCNCC3)c(F)cc2c1=O` [ciprofloxacin], the “MIC's of ciprofloxacin” value [4] is given as 0.25 to 1.0 µg/mL.
In the case of `CC1(C)S[C@@H]2[C@H](NC(=O)[C@H](N)c3ccccc3)C(=O)N2[C@H]1C(=O)O` [ampicillin], the “susceptibility by standard disk diffusion and cefinase test” value (S. aureus strains) is reported as “resistance”.
For `CO/N=C(\C(=O)N[C@@H]1C(=O)N2C(C(=O)O)=C(COC(C)=O)CS[C@H]12)c1csc(N)n1` [cefotaxime], the “conventional MIC of cefotaxime” value [5] is listed as 0.06 µg/mL, the MIC of cefotaxime [6] is listed as 0.03 µg/mL and the MIC of cefotaxime [7] is listed as 0.25 µg/mL.
In the case of `Cc1nnc(SCC2=C(C(=O)O)N3C(=O)[C@@H](NC(=O)Cn4cnnn4)[C@H]3SC2)s1` [cefazolin], the growth (E. coli SHY97-3923; cefazolin alone (0.5 g)) is reported as “not able to reduce growth” and the growth (E. coli SHY97-3923; cefazolin with LFC) is reported as “completely inhibit bacterial growth”.
With `CC[C@H]1OC(=O)[C@H](C)[C@@H](O[C@H]2C[C@@](C)(OC)[C@@H](O)[C@H](C)O2)[C@H](C)[C@@H](O[C@@H]2O[C@H](C)C[C@H](N(C)C)[C@H]2O)[C@](C)(O)C[C@@H](C)C(=O)[C@H](C)[C@@H](O)[C@]1(C)O` [erythromycin] the growth (S. aureus SHY97-3906) was “affected”.
